One series has as its target T1, muscarinic M3 receptors (Cavia porcellus, UniProt H0W1Z3).
T1 construct: Smooth muscle cells were isolated from guinea pig bladders; from tissue; host or cells: smooth muscle cells freshly isolated from guinea pig bladder
The experiment in a line: Functional affinity estimate for muscarinic M3 receptors in bladders (carbachol-induced intracellular Ca2+ change in bladder smooth muscle cells). It counts as cell-based, guinea pig. The conditions noted are these: for IC50: IC50 (ng/mL), inhibition of carbachol-induced Ca2+ increase, guinea pig bladder smooth muscle cells, Fura2; for Ki: Ki (nM), IC50 converted by Cheng-Prusoff equation based on EC50 of carbachol. On the procedure:
Below, the method is described in brief.
Smooth muscle cells were isolated from guinea pig bladders from which the […] had been removed, loaded with a calcium-sensitive fluorescent dye Fura2 and suspended in phenol red-free Hanks' buffer solution supplemented with 20 mM HEPES (pH 7.4) and 0.1% bovine serum albumin. An aliquot of cell suspension (490 μL) was continuously stirred, kept at 28° C. and monitored for the ratio of fluorescence (500 nm) at 340 nm excitation to that at 380 nm excitation. To each aliquot, 5 μL of test compound and carbachol solutions were serially added with a 2 minute interval, and the peak increase in the ratio over the level just before stimulation was used in data analysis.

Series [1] in a line: Evaluation of hygroscopicity (dynamic steam adsorption, weight change). It counts as physicochemical. The following applies: 25° C., within the range 5–95% relative humidity. The method, then: A sample (about 5 mg) was placed in a purpose-made quartz holder, and the sample weight at the respective humidity was continuously measured and recorded in the following conditions. The apparatus including data processing was operated according to the method and procedure directed in each device. (Apparatus: dynamic steam adsorption measuring apparatus DVS Advantage, made by SMS)

Series [2] is described as follows: Evaluation of stability (1): forced degradation test, impurities by LC. The conditions noted are these: for Change from Impurity Amt. before Storage (%), Condition 3 / Change from Impurity Amt. before Storage (%), Condition 2: 25° C., 5 days; for Change from Impurity Amt. before Storage (%), Condition 3: NUV (near ultraviolet ray) irradiated; for Change from Impurity Amt. before Storage (%), Condition 3 / Change from Impurity Amt. before Storage (%), Condition 1: tightly closed; for Change from Impurity Amt. before Storage (%), Condition 2: relative humidity 93%, open; for Change from Impurity Amt. before Storage (%), Condition 1: 120° C., 24 hours. On the procedure: A sample after storage was dissolved in 1 mL of MeOH and used as a sample solution. The sample solution was diluted 100 times with MeOH and used as a standard solution. Impurities contained in the sample solution was quantitatively analyzed using the standard solution. In this determination, the apparatus including data processing was operated according to the method and procedure directed in each device. (Apparatus: LC-MSD 1100 series, made by Agilent)

In general, IC50 refers to the concentration at which inhibition is half-maximal. A word on the Ki: it is the dissociation constant of the complex between target and ligand, obtained from inhibition or displacement.

Where only a bound is given, the exact number is not on record here.

T1 sequence (H0W1Z3 1-590): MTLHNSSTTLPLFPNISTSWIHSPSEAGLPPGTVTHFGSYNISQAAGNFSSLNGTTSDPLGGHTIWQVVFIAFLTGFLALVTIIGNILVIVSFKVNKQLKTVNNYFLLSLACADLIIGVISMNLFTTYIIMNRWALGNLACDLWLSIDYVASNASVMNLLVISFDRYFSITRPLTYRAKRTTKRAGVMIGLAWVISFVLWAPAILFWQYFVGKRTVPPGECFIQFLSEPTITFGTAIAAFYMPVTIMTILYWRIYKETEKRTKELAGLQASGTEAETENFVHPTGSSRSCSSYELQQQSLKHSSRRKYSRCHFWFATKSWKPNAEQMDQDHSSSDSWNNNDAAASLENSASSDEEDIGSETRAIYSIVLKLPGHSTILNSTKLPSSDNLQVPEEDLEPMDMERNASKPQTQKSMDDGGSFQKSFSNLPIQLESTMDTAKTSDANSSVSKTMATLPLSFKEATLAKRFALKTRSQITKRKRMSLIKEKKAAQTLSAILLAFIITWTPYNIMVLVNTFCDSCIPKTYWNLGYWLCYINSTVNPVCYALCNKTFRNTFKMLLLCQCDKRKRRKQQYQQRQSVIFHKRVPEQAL

For the compound `O=C(O[C@H]1CN2CCC1CC2)N1CCc2ccccc2[C@H]1c1ccccc1` [Example 2, (−)-(3R)-quinuclidin-3-yl(1R)-1-phenyl-1,2,3,4-tetrahydroisoquinoline-2-carboxylate (+)-(2S,3S)-di-O-benzoyltartrate], on muscarinic M3 receptors, the IC50 is 8.83 nM and the Ki was 0.62 ± 0.16 nM. Besides, the “Weight Change (%)” value in series [1] is reported as less than 1%. Also, in series [2], the “Change from Impurity Amt. before Storage (%), Condition 3” value (“Change … (%), Condition 3” below) amounted to 0.0%; the “Change from Impurity Amt. before Storage (%), Condition 2” value (shortened to “Change … (%), Condition 2”) came to 0.1%; the “Change from Impurity Amt. before Storage (%), Condition 1” value (“Change … (%), Condition 1” for short) came out at 0.2%; the “Impurities before Storage (%)” value is given as 0.0%.
As to `O=C(O[C@H]1CN2CCC1CC2)N1CCc2ccccc2[C@H]1c1ccccc1` [Example 3, (−)-(3R)-quinuclidin-3-yl(1R)-1-phenyl-1,2,3,4-tetrahydroisoquinoline-2-carboxylate (+)-(2S,3S)-di-O-(4-methylbenzoyl)tartrate], on muscarinic M3 receptors, the IC50 was 10.5 nM and the Ki was 0.69 ± 0.19 nM. Also, the “Weight Change (%)” value in series [1] is less than 1%. In series [2], the “Change … (%), Condition 3” value amounted to 0.0%; the “Change … (%), Condition 2” value turned out to be 0.1%; the “Change … (%), Condition 1” value came to 2.3%; the “Impurities before Storage (%)” value is on record as 0.0%.
As for `O=C(O[C@H]1CN2CCC1CC2)N1CCc2ccccc2[C@H]1c1ccccc1.O=S(=O)(O)c1ccccc1` [Example 5-1, (−)-(3R)-quinuclidin-3-yl(1R)-1-phenyl-1,2,3,4-tetrahydroisoquinoline-2-carboxylate benzenesulfonate], the “Weight Change (%)” value in series [1] is reported as less than 1%. In series [2] (benzenesulfonate), the “Change … (%), Condition 3” value is reported as −0.2%; the “Change … (%), Condition 2” value amounted to 0.0%; the “Change … (%), Condition 1” value is reported as −0.1%; the “Impurities before Storage (%)” value is recorded as 1.8%.
Turning to `Cc1ccc(S(=O)(=O)O)cc1.O=C(O[C@H]1CN2CCC1CC2)N1CCc2ccccc2[C@H]1c1ccccc1` [Example 11, (−)-(3R)-quinuclidin-3-yl(1R)-1-phenyl-1,2,3,4-tetrahydroisoquinoline-2-carboxylate p-toluenesulfonate], on muscarinic M3 receptors, the IC50 was 4.11 nM and the Ki was 0.52 ± 0.13 nM. Moreover, in series [1], the “Weight Change (%)” value is given as less than 6%. In addition, in series [2], the “Change … (%), Condition 3” value came out at 0.0%; the “Change … (%), Condition 2” value is 0.1%; the “Change … (%), Condition 1” value is −0.1%; the “Impurities before Storage (%)” value is given as 0.5%.
As for `CCS(=O)(=O)O.O=C(O[C@H]1CN2CCC1CC2)N1CCc2ccccc2[C@H]1c1ccccc1` [Example 12, (−)-(3R)-quinuclidin-3-yl(1R)-1-phenyl-1,2,3,4-tetrahydroisoquinoline-2-carboxylate ethanesulfonate], on muscarinic M3 receptors, the IC50 is 4.02 nM and the Ki was 0.54 ± 0.055 nM. Also, in series [1], the “Weight Change (%)” value is on record as less than 5%. In series [2], the “Change … (%), Condition 3” value is listed as −0.1%; the “Change … (%), Condition 2” value is −0.1%; the “Change … (%), Condition 1” value was −0.2%; the “Impurities before Storage (%)” value is 1.4%.
Consider `CS(=O)(=O)O.O=C(O[C@H]1CN2CCC1CC2)N1CCc2ccccc2[C@H]1c1ccccc1` [Example 13, (−)-(3R)-quinuclidin-3-yl(1R)-1-phenyl-1,2,3,4-tetrahydroisoquinoline-2-carboxylate methanesulfonate], for which, in series [1], the “Weight Change (%)” value was less than 25%.
Same read-out and setting: with “(−)-(3R)-quinuclidin-3-yl(1R)-1-phenyl-1,2,3,4-tetrahydroisoquinoline-2-carboxylate methyl phosphate [Example 14]” the figure was less than 11%.

The values are drawn from patent US7176219B2, “Salts of quinuclidine derivative” (priority 2005, dated 2007).
